Test results as given in patent EP1541559A1, “5-SUBSTITUTED ISOQUINOLINE DERIVATIVE” (Asahi Kasei Pharma Corporation, priority 2002, dated 2004).
Counter-ions that a name gives are not always drawn. Like-named read-outs stand apart in the source and are kept apart here.

Assays:
[1] = tested on: myosin regulatory light chain; experiment: Action on amount of phosphorylated myosin regulatory light chain in the cells (Test Example 1); format: cell-based, human; conditions: neutrophils of healthy volunteers, reaction with test compound at 25°C for 5 minutes, read-out: Inhibition of myosin regulatory light chain phosphorylation (IC50: µM)
Experimental: The neutrophils were washed with PBS(-) and resuspended in Hanks' Balanced Salt Solution (HBSS+, Gibco) to prepare a cell suspension (8 x 10^6/ml). The cell suspension was diluted to 5 x 10^6/ml, introduced into Eppendorf tubes in a volume of 0.4 ml each, then 0.1 ml each of solutions of a test compound at various concentrations were added to the suspension and allowed to react at 25°C for 5 minutes. After the reaction, 0.1 ml of trichloroacetic acid solution was added to each reaction, the reaction mixture was gently shaken and centrifuged at 12,000 rpm (4°C, 5 minutes), and the supernatant was removed. Subsequently, 3 μl of 1 M Tris solution was added to the residue, the mixture was further mixed with 50 μl of extraction buffer (8 M urea, 0.02% 2-mercaptoethanol, 0.002% bromophenol blue) and left stand at room temperature for 1 hour. Then, the reaction mixture was loaded on a spin column (0.45 μm, Millipore) to remove the insoluble solids and a sample buffer for SDS polyacrylamide gel electrophoresis (25 mM, Tris-HCl pH 6.8, 2.5% 2-mercaptoethanol, 2% sodium dodecylsulfate, 5% sucrose, 0.002% bromophenol blue as final concentrations) was added, and 10 μl of each sample was subjected to electrophoresis. […] J. Physiol., 274, […]-[…] (1998)), which specifically recognize the phosphorylated myosin regulatory light chain, and donkey anti-mouse IgG (Chemicon) conjugated with horseradish peroxidase (HRP-labeled). The band of the phosphorylated myosin regulatory light chain was detected on a film by using ECL Plus Kit (Amersham Pharmacia Biotech). This band was subjected to quantification using a densitometer. By using this value, the inhibitory ratio (%) for phosphorylation of the myosin regulatory light chain was calculated by using the following equation.

[2] = tested on: Neutrophils; experiment: Neutrophil migration inhibitory action, Boyden Chamber, FMLP (Test Example 5); format: cell-based, human; conditions: FMLP (1 µM), migration at 37°C for 30 minutes, read-out: Neutrophil migration inhibition IC50
Experimental: Neutrophils were isolated from 50 to 100 ml of peripheral blood collected from healthy donors by the method described in Test Example 1 to obtain a cell suspension (8 x 10^6/ml). Subsequently, solutions of a test compound at various concentrations were introduced into wells of a 96-well plate in a volume of 125 µl per well, the cell suspension of an equivalent volume was added to it and the plate was preincubated at room temperature for 5 minutes. During the preincubation, FMLP (1 µM, Sigma) solution was added to the lower chamber to set Boyden Chamber, the preincubated cell suspension was added to the upper chamber in a volume of 200 µl per well, and the cells were allowed to migrate at 37°C under 5% carbon dioxide for 30 minutes. The filter after the migration was collected, and the non-migrated cells adhered to the surface that faced the upper chamber were carefully wiped off. Then, the migrated cells on the back surface were stained with DifQuick dye solution (International Reagents), washed with water and dried, and then absorbance was measured at 595 nm. The inhibition ratio against migration (%) of a test compound was calculated by using the following equation: Migration inhibition ratio (%) = (1 -Absorbance of the group with addition of test compound /Absorbance of the group without addition of test compound) x 100 [formula]

[3] = tested on: thoracic aorta; experiment: Vasoconstriction inhibitory action on aorta rings constricted with phenylephrine (Test Example 2); set-up: species or system Rats (Wistar, 11-week old); conditions: for vasoconstriction inhibitory action: result in words, aorta constricted with phenylephrine (1 µM)
Source text: Rats (Wistar, 11-week old) were bleeded to death and laparotomized to take out the thoracic aorta.

[4] = tested on: Japanese white rabbit; experiment: Intraocular pressure reducing action (Test Example 4); format: in vivo; conditions: result in words
Experimental: A Japanese white rabbit having a body weight of about 2 kg was placed in a positioner and naturalized for one week before the experiment. An ophthalmologic local […] (Benoxil) was administered to the left eye, and then intraocular pressure was measured by using a tonometer (Classic 30, Solan). The initial value of the intraocular pressure was measured, then 50 μl of a test compound (1% aqueous solution) was dropped to the left eye, and after 2 hours, the intraocular pressure was measured. The intraocular pressure reducing action of the test compounds is shown in Table 7 mentioned below as ratios (%) of reduction of intraocular pressure based on the initial value of the intraocular pressure.

[5] = Homo sapiens, Neutrophil, 0.5 h
[6] = Homo sapiens, Neutrophil, 5 min

| Compound | IC50 [2, 5] | IC50 [1, 6] | IC50 ([1]; hydrochloride) | further results |
| --- | --- | --- | --- | --- |
| 4-(4-Cyano-5-isoquinolyl)aminopiperidine hydrochloride [Example 143] |  |  |  | IC50 [1]: ≤ 40 µM |
| NCCN(CCS(=O)(=O)c1ccccc1)S(=O)(=O)c1cccc2c(N)nccc12 [Example 9, N-[(1-Amino-5-isoquinolyl)sulfonyl]-N-[2-(phenylsulfonyl)ethyl]ethylenediamine hydrochloride] | 1 to 10 µM | 15 µM |  |  |
| Cl.NCCCN(CCS(=O)(=O)c1ccccc1)S(=O)(=O)c1cccc2c(O)nccc12 [Example 13, N-[(1-Hydroxy-5-isoquinolyl)sulfonyl]-N-[2-(phenylsulfonyl)ethyl]-1,3-propylenediamine hydrochloride] | 1 to 10 µM | 20 µM |  | vasoconstriction inhibitory action [3]: significant vasoconstriction inhibitory action |
| NCCCN(CCCc1ccccc1)S(=O)(=O)c1cccc2c(O)nccc12 [Example 14, N-[(1-Hydroxy-5-isoquinolyl)sulfonyl]-N-(3-phenylpropyl)-1,3-propylenediamine hydrochloride] | 1 to 10 µM | 20 to 40 µM |  |  |
| c1cc(NCC2CCCNC2)c2ccncc2c1 (stereo not drawn) [Example 22, 3-(5-Isoquinolyl)aminomethylpiperidine hydrochloride] |  | ≤ 40 µM |  |  |
| CSc1cncc2cccc(NC3CCNCC3)c12.Cl [Example 105, 4-(4-Methylthio-5-isoquinolyl)aminopiperidine hydrochloride] |  | ≤ 40 µM |  | vasoconstriction inhibitory action [3]: significant vasoconstriction inhibitory action |
| Cl.NC1CCC(Nc2cccc3cncc(Br)c23)CC1 (stereo not drawn) [Example 107, N-(4-Bromo-5-isoquinolyl)-1,4-cyclohexanediamine hydrochloride] |  | ≤ 40 µM | ≤ 20 µM | intraocular pressure reducing activity [4]: significant intraocular pressure reducing activity |
| Cl.Oc1nccc2c(NC3CCNCC3)cccc12 [Example 115, 4-(1-Hydroxy-5-isoquinolyl)aminopiperidine hydrochloride] |  |  |  | intraocular pressure reducing activity [4]: significant intraocular pressure reducing activity |
| NCCCN(CCCc1cccc(C(=O)O)c1)S(=O)(=O)c1cccc2cnccc12 [Example 128, N-[(5-Isoquinolyl)sulfonyl]-N-[3-(3-carboxy)phenylpropyl]-1,3-propylenediamine hydrochloride] |  |  | ≤ 20 µM | IC50 [2]: ≤ 40 µM |
| COC(=O)c1ccc(CCCN(CCCN)S(=O)(=O)c2cccc3cnccc23)cc1 [Example 130, N-[(5-Isoquinolyl)sulfonyl]-N-[3-(4-methoxycarbonyl)phenylpropyl]-1,3-propylenediamine hydrochloride] |  |  | ≤ 20 µM |  |
| COC(=O)c1cccc(CCCN(CCCN)S(=O)(=O)c2cccc3cnccc23)c1 [Example 131, N-[(5-Isoquinolyl)sulfonyl]-N-[3-(3-methoxycarbonyl)phenylpropyl]-1,3-propylenediamine hydrochloride] |  |  | ≤ 20 µM | IC50 [2]: ≤ 40 µM |
| CCc1cncc2cccc(O[C@H]3CC[C@H](N)CC3)c12 [Example 138, Trans-4-[(4-ethyl-5-isoquinolyl)oxy]cyclohexylamine hydrochloride] |  | ≤ 40 µM | ≤ 20 µM |  |
| Nc1nccc2c(NC3CCNCC3)cccc12 [Example 142, 4-(1-Amino-5-isoquinolyl)aminopiperidine hydrochloride] |  | ≤ 40 µM | ≤ 20 µM |  |
| N#Cc1cncc2cccc(O[C@H]3CC[C@H](NCCO)CC3)c12 [Example 156, Trans-1-[(4-cyano-5-isoquinolyl)oxy]-4-[(2-hydroxyethyl)amino]cyclohexane hydrochloride] |  | ≤ 40 µM | ≤ 20 µM |  |
| CC1CNCCN1S(=O)(=O)c1cccc2cnccc12 (stereo not drawn) [Example H-7, 1-(5-isoquinolinesulfonyl)-2-methylpiperazine, reference compound] |  |  |  | inhibition at 1 µM ([3]; Rattus norvegicus, read-out: Vasoconstriction inhibitory action (relaxation ratio) (%)): 22% |

Now from value to compound, other results behind:

| IC50 [2, 5] | Compound | IC50 [1, 6] | IC50 ([1]; hydrochloride) | further results |
| --- | --- | --- | --- | --- |
| 1 to 10 µM | NCCCN(CCCCc1ccccc1)S(=O)(=O)c1cccc2cnccc12 [Example 4, N-[(5-Isoquinolyl)sulfonyl]-N-(4-phenylbutyl)-1,3-propylenediamine hydrochloride] | 30 µM |  |  |
| 1 to 10 µM | NCCCN(CCS(=O)(=O)c1ccccc1)S(=O)(=O)c1cccc2cnccc12 [Example 6, N-[(5-Isoquinolyl)sulfonyl]-N-[2-(phenylsulfonyl)ethyl]-1,3-propylenediamine hydrochloride] | 20 µM |  |  |
| 10 to 40 µM | NCCCNc1cccc2cnccc12 [Example 16, N-(5-Isoquinolyl)-1,3-propylenediamine hydrochloride] | 20 to 40 µM |  |  |
| 10 to 40 µM | NCCCCNc1cccc2cnccc12 [Example 18, N-(5-Isoquinolyl)-1,4-butylenediamine hydrochloride] | 20 to 40 µM |  |  |
| 10 to 40 µM | c1cc(NCC2CCNCC2)c2ccncc2c1 [Example 21, 4-(5-Isoquinolyl)aminomethylpiperidine hydrochloride] | ≤ 40 µM | ≤ 20 µM |  |
| 1 to 10 µM | N[C@H]1CC[C@@H](Nc2cccc3cnccc23)CC1 [Example 23, Cis-N-(5-Isoquinolyl)-1,4-cyclohexanediamine hydrochloride] | 1 to 20 µM |  |  |
| 1 to 10 µM | N[C@H]1CC[C@H](Nc2cccc3cnccc23)CC1 [Example 24, Trans-N-(5-isoquinolyl)-1,4-cyclohexanediamine hydrochloride] | 1 to 20 µM |  |  |
| 10 to 40 µM | NC1CCCC(Nc2cccc3cnccc23)C1 (stereo not drawn) [Example 25, N-(5-Isoquinolyl)-1,3-cyclohexanediamine hydrochloride] | 20 to 40 µM |  |  |
| 10 to 40 µM | NCc1cccc(CNc2cccc3cnccc23)c1 [Example 26, N-(5-Isoquinolyl)-1,3-xylylenediamine hydrochloride] | 20 to 40 µM |  |  |
| ≤ 40 µM | c1cc(OC2CCNCC2)c2ccncc2c1 [Example 27, 4-[(5-Isoquinolyl)oxy]piperidine hydrochloride] | 1 to 20 µM |  |  |
| 1 to 10 µM | NCCN(CCCc1ccccc1)S(=O)(=O)c1cccc2cnccc12 [Example 30, N-[(5-isoquinolyl)sulfonyl]-N-(3-phenylpropyl)ethylenediamine] | 20 to 40 µM |  |  |
| ≤ 40 µM | Fc1cncc2cccc(NC3CCNCC3)c12 [Example 104, 4-(4-Fluoro-5-isoquinolyl)aminopiperidine hydrochloride] | ≤ 40 µM | ≤ 20 µM |  |
| ≤ 40 µM | C=Cc1cncc2cccc(NC3CCNCC3)c12.Cl [Example 112, 4-(4-Vinyl-5-isoquinolyl)aminopiperidine hydrochloride] | ≤ 40 µM | ≤ 20 µM | vasoconstriction inhibitory action [3]: significant vasoconstriction inhibitory action |
| ≤ 40 µM | Nc1cncc2cccc(O[C@H]3CC[C@H](N)CC3)c12 [Example 137, Trans-4-[(4-amino-5-isoquinolyl)oxy]cyclohexylamine hydrochloride] | ≤ 40 µM | ≤ 20 µM |  |
| ≤ 40 µM | Cc1cnc(O)c2cccc(N[C@H]3CC[C@H](N)CC3)c12 [Example 160, Trans-N-(1-hydroxy-4-methyl-5-isoquinolyl)-1,4-cyclohexanediamine hydrochloride] | ≤ 40 µM | ≤ 20 µM |  |
